Test results as given in BindingDB's records for doi:10.1021/jm00148a012 (1985).

Molecular target: Gamma-aminobutyric acid type B receptor subunit 1/2 (UniProt Q9Z0U4+O88871)
Test: Displacement of [3H]baclofen from Gamma-aminobutyric acid type B receptor in rat brain membranes

Gamma-aminobutyric acid type B receptor subunit 1/2, sequence (Q9Z0U4 whole entry): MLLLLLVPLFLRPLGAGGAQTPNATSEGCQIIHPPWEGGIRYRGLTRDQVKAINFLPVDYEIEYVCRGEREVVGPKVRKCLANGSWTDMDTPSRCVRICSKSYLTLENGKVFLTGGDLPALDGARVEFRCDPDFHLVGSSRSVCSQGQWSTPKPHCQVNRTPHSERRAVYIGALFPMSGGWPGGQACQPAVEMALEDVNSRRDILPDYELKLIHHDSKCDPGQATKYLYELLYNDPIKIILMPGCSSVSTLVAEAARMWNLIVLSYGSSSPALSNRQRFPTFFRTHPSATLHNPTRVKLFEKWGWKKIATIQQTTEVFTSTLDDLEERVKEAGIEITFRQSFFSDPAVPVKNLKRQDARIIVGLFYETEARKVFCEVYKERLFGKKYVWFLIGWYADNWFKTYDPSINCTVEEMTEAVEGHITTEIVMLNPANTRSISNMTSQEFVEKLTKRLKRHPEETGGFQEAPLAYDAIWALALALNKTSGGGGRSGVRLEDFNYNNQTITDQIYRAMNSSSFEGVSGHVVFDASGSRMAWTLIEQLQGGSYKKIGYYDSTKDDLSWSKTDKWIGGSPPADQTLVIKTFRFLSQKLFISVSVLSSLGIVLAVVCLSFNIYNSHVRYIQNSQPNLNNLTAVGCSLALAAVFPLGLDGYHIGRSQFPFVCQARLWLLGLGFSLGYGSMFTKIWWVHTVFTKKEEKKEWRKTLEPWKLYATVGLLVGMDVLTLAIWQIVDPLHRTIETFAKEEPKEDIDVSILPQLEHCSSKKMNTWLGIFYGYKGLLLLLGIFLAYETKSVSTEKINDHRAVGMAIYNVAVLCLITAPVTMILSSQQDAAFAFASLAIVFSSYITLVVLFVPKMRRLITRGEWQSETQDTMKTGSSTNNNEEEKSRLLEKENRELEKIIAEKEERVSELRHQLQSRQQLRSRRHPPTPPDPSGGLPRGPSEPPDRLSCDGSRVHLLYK
Gamma-aminobutyric acid type B receptor subunit 1/2, sequence (O88871 whole entry): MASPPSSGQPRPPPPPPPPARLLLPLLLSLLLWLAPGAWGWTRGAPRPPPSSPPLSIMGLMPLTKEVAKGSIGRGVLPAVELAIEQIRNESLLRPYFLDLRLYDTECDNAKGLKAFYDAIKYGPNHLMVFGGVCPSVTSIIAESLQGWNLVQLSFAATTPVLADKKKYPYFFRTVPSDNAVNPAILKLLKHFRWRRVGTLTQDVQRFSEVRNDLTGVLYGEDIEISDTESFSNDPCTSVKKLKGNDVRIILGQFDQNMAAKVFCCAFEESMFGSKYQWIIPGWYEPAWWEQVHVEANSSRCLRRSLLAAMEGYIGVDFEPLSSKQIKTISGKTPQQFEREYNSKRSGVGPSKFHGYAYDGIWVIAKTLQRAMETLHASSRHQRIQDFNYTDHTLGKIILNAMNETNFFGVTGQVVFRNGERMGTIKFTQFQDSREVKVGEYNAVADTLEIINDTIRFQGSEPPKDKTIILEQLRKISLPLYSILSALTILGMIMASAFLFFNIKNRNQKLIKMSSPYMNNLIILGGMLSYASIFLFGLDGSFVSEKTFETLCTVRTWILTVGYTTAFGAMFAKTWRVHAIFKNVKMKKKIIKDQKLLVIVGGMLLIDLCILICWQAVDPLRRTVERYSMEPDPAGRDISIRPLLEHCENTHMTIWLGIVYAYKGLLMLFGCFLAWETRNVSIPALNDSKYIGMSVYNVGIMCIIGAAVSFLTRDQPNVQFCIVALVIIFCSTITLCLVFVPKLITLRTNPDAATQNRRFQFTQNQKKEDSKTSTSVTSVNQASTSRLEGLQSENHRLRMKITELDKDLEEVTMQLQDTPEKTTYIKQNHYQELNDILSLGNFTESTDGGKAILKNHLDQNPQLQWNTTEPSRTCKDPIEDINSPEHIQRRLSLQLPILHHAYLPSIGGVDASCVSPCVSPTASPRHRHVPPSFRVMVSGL

IC50: > 100 µM
Compound: NCC1CC(=O)CC(=O)C1
